Molecular target: T1, His6-PDK1 (aa 52-556) (Homo sapiens, UniProt O15530)
T1 construct: 15 μL His6-PDK1 (aa 52-556) 3.33 ng/well); host or cells: baculovirus-infected insect cells
T1 sequence (O15530 52-556): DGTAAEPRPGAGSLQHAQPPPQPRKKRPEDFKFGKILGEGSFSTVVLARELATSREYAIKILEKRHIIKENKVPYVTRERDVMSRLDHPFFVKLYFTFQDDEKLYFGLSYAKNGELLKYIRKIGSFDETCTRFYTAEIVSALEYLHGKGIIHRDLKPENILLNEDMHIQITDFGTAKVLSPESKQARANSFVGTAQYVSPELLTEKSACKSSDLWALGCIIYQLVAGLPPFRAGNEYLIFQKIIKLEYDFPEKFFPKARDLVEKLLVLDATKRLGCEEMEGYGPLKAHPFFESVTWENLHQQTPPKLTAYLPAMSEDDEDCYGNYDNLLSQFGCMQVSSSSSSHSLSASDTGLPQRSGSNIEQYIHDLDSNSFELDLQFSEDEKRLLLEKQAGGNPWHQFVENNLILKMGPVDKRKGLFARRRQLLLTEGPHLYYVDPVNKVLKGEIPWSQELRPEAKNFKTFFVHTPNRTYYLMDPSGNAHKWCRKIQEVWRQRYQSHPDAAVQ
Assay: PDK1 kinase assay III (with Tween 20)
Assay type: biochemical
Details: compound at 10 μM; PDK1 kinase assay III (values without asterisk); read-out: % CTL (residual activity of the enzyme relative to DMSO control)
Method in brief: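 Started with ATP, incubated 90 min at ambient temperature, then stopped with phosphoric acid. Asterisked values come from assay II (24 h or 5 min incubation).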

remaining activity at 10 µM [%] | SMILES
14.4 | Cc1c(C(=O)NC/C=C/c2ccc3nc(Nc4ccc(CN(C)C)cc4)ncc3c2F)c(=O)n(Cc2ccc(F)c(F)c2)n1C [IV-34, 2-(3,4-difluorobenzyl)-N-{(2E)-3-[2-({4-[(dimethylamino)methyl]phenyl}amino)-5-fluoroquinazolin-6-yl]prop-2-en-1-yl}-1,5-dimethyl-3-oxo-2,3-dihydro-1H-pyrazole-4-carboxamide]
13.9 | CN1CCC(N(C)c2ccc(Nc3ncc4c(F)c(/C=C/CNC(=O)c5cncn(Cc6ccc(F)c(F)c6)c5=O)ccc4n3)cc2)CC1 [IV-35, 1-(3,4-difluorobenzyl)-N-{(2E)-3-[5-fluoro-2-({4-[methyl(1-methylpiperidin-4-yl)amino]phenyl}amino)quinazolin-6-yl]prop-2-en-1-yl}-6-oxo-1,6-dihydropyrimidine-5-carboxamide]
14.2 | Cc1c(C(=O)NC/C=C/c2ccc3nc(Nc4ccc(N(C)C5CCN(C)CC5)cc4)ncc3c2F)c(=O)n(Cc2ccc(F)c(F)c2)n1C [IV-36, 2-(3,4-difluorobenzyl)-N-{(2E)-3-[5-fluoro-2-({4-[methyl(1-methylpiperidin-4-yl)amino]phenyl}amino)quinazolin-6-yl]prop-2-en-1-yl}-1,5-dimethyl-3-oxo-2,3-dihydro-1H-pyrazole-4-carboxamide]
15.4 | Cc1c(/C=C/CNC(=O)c2c(C)n(C)n(Cc3ccc(F)c(F)c3)c2=O)c(=O)n(C(C)C)c2nc(Nc3ccc(N4CCOCC4)cc3)ncc12 [IV-37, 2-(3,4-difluorobenzyl)-1,5-dimethyl-N-{(2E)-3-[5-methyl-2-{[4-(morpholin-4-yl)phenyl]amino}-7-oxo-8-(propane-2-yl)-7,8-dihydropyrido[2,3-c]pyrimidin-6-yl]prop-2-en-1-yl}-3-oxo-2,3-dihydro-1H-pyrazole-4-carboxamide]
11.8 | Cc1c(/C=C/CNC(=O)c2cncn(Cc3ccc(F)c(F)c3)c2=O)c(=O)n(C(C)C)c2nc(Nc3ccc(N4CCOCC4)cc3)ncc12 [IV-38, 1-(3,4-difluorobenzyl)-N-{(2E)-3-[5-methyl-2-{[4-(morpholin-4-yl)phenyl]amino}-7-oxo-8-(propane-2-yl)-7,8-dihydropyrido[2,3-d]pyrimidin-6-yl]prop-2-en-1-yl}-6-oxo-1,6-dihydropyrimidine-5-carboxamide]
17.9 | CN(C)Cc1ccc(Nc2ncc3cc(/C=C/CNC(=O)c4cc(Cl)nn(Cc5ccc(F)c(F)c5)c4=O)ccc3n2)cc1 [IV-39, 6-chloro-2-(3,4-difluorobenzyl)-N-{(2E)-3-[2-({4-[(dimethylamino)methyl]phenyl}amino)quinazolin-6-yl]prop-2-en-1-yl}-3-oxo-2,3-dihydropyridazine-4-carboxamide]
24.4 | O=C(NCc1ccc(-c2cnc3[nH]ccc3c2)s1)c1cncn(Cc2ccc(F)c(F)c2)c1=O [IV-41, 1-(3,4-difluorobenzyl)-6-oxo-N-{[5-(1H-pyrrolo[2,3-b]pyridin-5-yl)thiophen-2-yl]methyl}-1,6-dihydropyrimidine-5-carboxamide]
27.7 | Cc1c(C(=O)NCc2ccc(-c3cnc4[nH]ccc4c3)s2)c(=O)n(Cc2ccc(F)c(F)c2)n1C [IV-42, 2-(3,4-difluorobenzyl)-1,5-dimethyl-3-oxo-N-{[5-(1H-pyrrolo[2,3-b]pyridin-5-yl)thiophen-2-yl]methyl}-2,3-dihydro-1H-pyrazole-4-carboxamide]
17.3 | CN1CCC(Nc2ccc(Nc3ncc4cc(/C=C/CNC(=O)c5cn(C)c(=O)n(Cc6ccc(F)c(F)c6)c5=O)ccc4n3)cc2F)CC1 [IV-43, 3-(3,4-difluorobenzyl)-N-{(2E)-3-[2-({3-fluoro-4-[(1-methylpiperidin-4-yl)amino]-phenyl}amino)quinazolin-6-yl]prop-2-en-1-yl}-1-methyl-2,4-dioxo-1,2,3,4-tetrahydro-pyrimidine-5-carboxamide]
16.3 | CN1CCC(N(C)c2ccc(Nc3ncc4cc(/C=C/CNC(=O)c5cn(C)c(=O)n(Cc6ccc(F)c(F)c6)c5=O)ccc4n3)cc2)CC1 [IV-44, 3-(3,4-difluorobenzyl)-1-methyl-N-{(2E)-3-[2-({4-[methyl(1-methylpiperidin-4-yl)amino]phenyl}amino)quinazolin-6-yl]prop-2-en-1-yl}-2,4-dioxo-1,2,3,4-tetrahydro-pyrimidine-5-carboxamide]
15.3 | CN1CCC(N(C)c2ccc(Nc3ncc4cc(/C=C/CNC(=O)c5cncn(Cc6ccc(F)c(F)c6)c5=O)ccc4n3)cc2)CC1 [IV-45, 1-(3,4-difluorobenzyl)-N-{(2E)-3-[2-({4-[methyl(1-methylpiperidin-4-yl)amino]-phenyl}amino)quinazolin-6-yl]prop-2-en-1-yl}-6-oxo-1,6-dihydropyrimidine-5-carboxamide]
11.9 | CN1CCC(Nc2ccc(Nc3ncc4cc(/C=C/CNC(=O)c5cncn(Cc6ccc(F)c(F)c6)c5=O)ccc4n3)cc2F)CC1 [IV-46, 1-(3,4-difluorobenzyl)-N-{(2E)-3-[2-({3-fluoro-4-[(1-methylpiperidin-4-yl)amino]-phenyl}amino)quinazolin-6-yl]prop-2-en-1-yl}-6-oxo-1,6-dihydropyrimidine-5-carboxamide]
24.4 | Nc1ncc2cc(/C=C/CNC(=O)c3cncn(Cc4ccc(F)c(F)c4)c3=O)ccc2n1 [IV-48, N-[(2E)-3-(2-aminoquinazolin-6-yl)prop-2-en-1-yl]-1-(3,4-difluorobenzyl)-6-oxo-1,6-dihydropyrimidine-5-carboxamide]
13.5 | CN1CCC(N(C)c2ccc(Nc3ncc4cc(/C=C/CNC(=O)c5nccn(Cc6ccc(F)c(F)c6)c5=O)ccc4n3)cc2)CC1 [IV-49, 4-(3,4-difluorobenzyl)-N-{(2E)-3-[2-({4-[methyl(1-methylpiperidin-4-yl)amino]-phenyl}amino)quinazolin-6-yl]prop-2-en-1-yl}-3-oxo-3,4-dihydropyrazine-2-carboxamide]
11.6 | CN1CCC(Nc2ccc(Nc3ncc4cc(/C=C/CNC(=O)c5nccn(Cc6ccc(F)c(F)c6)c5=O)ccc4n3)cc2F)CC1 [IV-50, 4-(3,4-difluorobenzyl)-N-{(2E)-3-[2-({3-fluoro-4-[(1-methylpiperidin-4-yl)amino]-phenyl}amino)quinazolin-6-yl]prop-2-en-1-yl}-3-oxo-3,4-dihydropyrazine-2-carboxamide]
14.5 | CN(C)Cc1ccc(Nc2ncc3cc(/C=C/CNC(=O)c4ccnn(Cc5ccc(F)c(F)c5)c4=O)ccc3n2)cc1 [IV-51, 2-(3,4-difluorobenzyl)-N-{(2E)-3-[2-({4-[(dimethylamino)methyl]phenyl}-amino)quinazolin-6-yl]prop-2-en-1-yl}-3-oxo-2,3-dihydropyridazine-4-carboxamide]
17.2 | CN1CCC(N(C)c2ccc(Nc3ncc4cc(/C=C/CNC(=O)c5ccnn(Cc6ccc(F)c(F)c6)c5=O)ccc4n3)cc2)CC1 [IV-52, 2-(3,4-difluorobenzyl)-N-{(2E)-3-[2-({4-[methyl(1-methylpiperidin-4-yl)amino]-phenyl}amino)quinazolin-6-yl]prop-2-en-1-yl}-3-oxo-2,3-dihydropyridazine-4-carboxamide]
